From patent US20220388919A1, “UREA-BASED BLEND COMPOSITION AND METHOD FOR THE MANUFACTURE THEREOF” (Yara International ASA, priority 2019, published 2022)

Assay: nBTPT recovered after storage in bags (HPLC, CEN 15688-2007)
Format: physicochemical
Settings: bagged conditions without the presence of a head space (exclusion of moisture and atmospheric gasses)
Experimental: For lab scale experiments, 1.2 kg of solid UAS fertilizer material was added to a lab scale drum. In a next step, the nBTPT/stabilizer material was slowly added. A residence time of 10 minutes was applied, and the rotating speed of the drum was consequently the same in each experiment. In case a moisture-repellent coating was added, a nebulizer was used and depending on the order of addition, the moisture-repellent coating was added before or after addition of the nBTPT material. Before use, the moisture-repellent coating was preheated to 80° C. Larger scale experiments with amounts up to 40 kg of fertilizer material were performed in a concrete mixer.
Optionally, a zinc sulphate, anhydrous zinc sulphate or monohydrate zinc sulphate, was coated on the particles (0.46 weight %). […] Product samples were taken at different times from a bag and the amount of nBTPT still present was measured by HPLC according to the procedure CEN 15688-2007, the results are presented in FIG. 1. […]
Urea particles containing 46 weight % of nitrogen was coated with 0.046 weight % of nBTPT, as urease inhibitor, and an inorganic stabilizer, magnesium oxide (0.023 weight %). […] Product samples were taken at different times and the amount of nBTPT still present was measured by HPLC according to the procedure CEN 15688-2007, the results are presented in FIG. 5. […]

CCCCNP(N)(N)=S [nBTPT, N-(n-butyl) thiophosphoric triamide]
stability of the urease inhibitor: further increased
